From ChEMBL document CHEMBL1201862, “PubChem BioAssay data set” (2004) come the findings set out here.

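Compound exposure: 48 hours, 5 concentrations, 96-well plates. Abbreviation: GI50, concentration required for 50% inhibition of growth.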 Active and inactive are the calls of the source. Cut-off read from the data, not from the text of the source: active = GI50 up to about 1.1 µM and inactive = higher. Some results are limits rather than exact numbers.

Among the test systems are SNB-19; CAKI-1; SNB-75; Hs-578T; SF-295; UACC-257; TK-10; 786-0; MDA-MB-435; U-251; COLO 205; SK-MEL-5; MOLT-4; NCI-H226; MDA-N; DU-145; UO-31; SK-MEL-28; A498; T47D.
Holding throughout (assay): DTP human tumour cell line panel, 48 h

`CC(=O)OCCOCn1c2c(c(=S)[nH]c1=O)CCC2`: the GI50 with SNB-19, with CAKI-1, in the assay with SNB-75, in the assay with Hs-578T, in the assay with SF-295 and with UACC-257 was > 100 µM (inactive) each time. Further, the GI50 is > 100 µM (inactive) in the assay with TK-10; 93.8 µM (inactive) in the assay on 786-0; > 100 µM (inactive) with MDA-MB-435; > 100 µM (inactive) in the assay on U-251; > 100 µM (inactive) in the assay on COLO 205; > 100 µM (inactive) in the assay with SK-MEL-5. Further, the GI50 in the assay on MOLT-4, with NCI-H226, with MDA-N, with DU-145, in the assay on UO-31 and in the assay with SK-MEL-28 was > 100 µM (inactive) throughout.
Turning to `COc1ccc(/C(=N/O)c2ccccc2C2=Nc3ccccc3C(NCc3ccccc3)O2)cc1C` (centres undefined), the GI50 in the assay with SNB-19 was 36.6 µM (inactive); in the assay on CAKI-1 it was 56.2 µM (inactive); with SNB-75, 24.9 µM (inactive); in the assay on Hs-578T, 40.8 µM (inactive); in the assay with SF-295, 25 µM (inactive); with UACC-257 it was 12.9 µM (inactive). The GI50 with 786-0 was 44.3 µM (inactive); in the assay with MDA-MB-435, 27.2 µM (inactive); in the assay on U-251, 30.5 µM (inactive); with COLO 205 it was 17.2 µM (inactive); with SK-MEL-5 it was 17.5 µM (inactive); with MOLT-4, 29.5 µM (inactive). The GI50 in the assay on NCI-H226 was 37 µM (inactive); in the assay with MDA-N it was 34.7 µM (inactive); with DU-145, 69.8 µM (inactive); in the assay with UO-31, 20.6 µM (inactive); in the assay on SK-MEL-28, 44.1 µM (inactive).
For the compound `COc1c(N2CCCCC2)c2c(=O)c3ccccc3oc2c2cc(C)oc12`, the GI50 is 40 µM (inactive) with SNB-19; 14.1 µM (inactive) in the assay with CAKI-1; 11.3 µM (inactive) in the assay on SNB-75; 18.4 µM (inactive) in the assay with Hs-578T; 18.8 µM (inactive) in the assay with SF-295; 33 µM (inactive) in the assay with UACC-257. The GI50 with TK-10 was 37.6 µM (inactive); in the assay with 786-0 it was 6.35 µM (inactive); in the assay on MDA-MB-435, 28.6 µM (inactive); in the assay with U-251 it was 24.4 µM (inactive); in the assay on COLO 205, 4.09 µM (inactive); with SK-MEL-5, 16.5 µM (inactive). Also, the GI50 in the assay on MOLT-4 was 4.03 µM (inactive); in the assay on NCI-H226, 13.3 µM (inactive); in the assay on MDA-N, 23.7 µM (inactive); in the assay on DU-145 it was 17.9 µM (inactive); in the assay with UO-31, 11.3 µM (inactive); with SK-MEL-28 it was 25.4 µM (inactive). Besides, the GI50 in the assay with A498 was 16 µM (inactive).
As for `Nc1c2ccccc2nc2ccc3c(=O)cc(-c4ccccc4)oc3c12`, the GI50 in the assay on SNB-19 is 1.26 µM (inactive); in the assay on CAKI-1, 1.33 µM (inactive); in the assay on SNB-75 it was 1.76 µM (inactive); in the assay on Hs-578T, 1.9 µM (inactive); in the assay with SF-295 it was 0.719 µM (active); in the assay on UACC-257, 1.75 µM (inactive). For the same compound, the GI50 in the assay with TK-10 was 2.07 µM (inactive); with 786-0 it was 0.436 µM (active); in the assay on MDA-MB-435, 1.27 µM (inactive); in the assay with U-251 it was 0.531 µM (active); in the assay with COLO 205, 0.234 µM (active); in the assay on SK-MEL-5, 1.52 µM (inactive). For the same compound, the GI50 was 1.17 µM (inactive) in the assay on T47D; 0.435 µM (active) in the assay on MOLT-4; 1.31 µM (inactive) in the assay on NCI-H226; 0.815 µM (active) in the assay with MDA-N; 1.75 µM (inactive) in the assay with DU-145; 1.5 µM (inactive) in the assay on UO-31. In addition, the GI50 in the assay on SK-MEL-28 is 1.55 µM (inactive).
Take `CSc1ccc(/C=C2\CNC/C(=C\c3ccc(SC)cc3)C2=O)cc1`: the GI50 with SNB-19 is 26.7 µM (inactive); in the assay with SNB-75, 15 µM (inactive); in the assay with Hs-578T, 64.1 µM (inactive); with SF-295, 29.4 µM (inactive); in the assay with UACC-257, > 143 µM (inactive); in the assay with TK-10 it was 41.9 µM (inactive). Besides, the GI50 is 29.3 µM (inactive) in the assay with 786-0; > 371 µM (inactive) in the assay on MDA-MB-435; 16.9 µM (inactive) with U-251; > 371 µM (inactive) in the assay with COLO 205; > 371 µM (inactive) in the assay on SK-MEL-5; > 371 µM (inactive) with T47D. In addition, the GI50 was 40.6 µM (inactive) with NCI-H226; > 100 µM (inactive) with MDA-N; > 371 µM (inactive) in the assay with DU-145; > 252 µM (inactive) in the assay on UO-31; > 209 µM (inactive) in the assay with SK-MEL-28.
For `COc1ccc2c(-c3ccc(OCCN(C)C)cc3)c(Oc3ccccc3)c(=O)oc2c1`, the GI50 is 5.86 µM (inactive) with SNB-19; 8.67 µM (inactive) in the assay on CAKI-1; 6.95 µM (inactive) with SNB-75; 6.18 µM (inactive) with Hs-578T; 3.17 µM (inactive) in the assay on SF-295; 2.09 µM (inactive) in the assay on UACC-257. In addition, the GI50 in the assay with TK-10 is 9.79 µM (inactive); in the assay with 786-0, 2.87 µM (inactive); with MDA-MB-435, 2.48 µM (inactive); in the assay on U-251 it was 2.82 µM (inactive); in the assay with COLO 205 it was 3.01 µM (inactive); in the assay on SK-MEL-5, 2.37 µM (inactive). Moreover, the GI50 was 7.85 µM (inactive) with T47D; 2.71 µM (inactive) in the assay with MOLT-4; 16.1 µM (inactive) with NCI-H226; 12.2 µM (inactive) with DU-145; 4 µM (inactive) in the assay on UO-31; 2.31 µM (inactive) in the assay on SK-MEL-28. For the same compound, in the assay on A498, the GI50 is 13.4 µM (inactive).
As to `COc1cc(N(CCC#N)CCC#N)ccc1/C=N\NC(=O)c1ccc(C)cc1`, the GI50 in the assay on SNB-19, with CAKI-1, with SNB-75, in the assay with Hs-578T, with SF-295 and in the assay with UACC-257 was > 100 µM (inactive) each time. For the same compound, the GI50 was > 100 µM (inactive) with TK-10; > 100 µM (inactive) with 786-0; > 100 µM (inactive) in the assay on MDA-MB-435; 16.4 µM (inactive) with U-251; > 100 µM (inactive) in the assay with COLO 205; > 100 µM (inactive) in the assay on SK-MEL-5. For the same compound, the GI50 in the assay with T47D, with MOLT-4, with NCI-H226, in the assay on MDA-N, in the assay with DU-145 and in the assay on SK-MEL-28 was > 100 µM (inactive) each time.
Consider `CSC(SC)=C(C#N)C(=O)Nc1cccc(Cl)c1`, for which the GI50 with SNB-19 was > 100 µM (inactive); in the assay with CAKI-1, 45.9 µM (inactive); in the assay with SNB-75 it was > 100 µM (inactive); with Hs-578T, > 100 µM (inactive); in the assay on SF-295, 42.6 µM (inactive); in the assay on UACC-257, > 100 µM (inactive). In addition, the GI50 with TK-10 was 59.3 µM (inactive); with 786-0 it was 33.8 µM (inactive); in the assay with MDA-MB-435 it was > 100 µM (inactive); with U-251 it was 76.7 µM (inactive); with COLO 205, > 100 µM (inactive); in the assay with SK-MEL-5, 10.3 µM (inactive). The GI50 with MOLT-4 was 20.5 µM (inactive); in the assay with NCI-H226, > 100 µM (inactive); in the assay with MDA-N, 58.5 µM (inactive); in the assay with SK-MEL-28 it was 64.7 µM (inactive); in the assay on A498 it was 61.1 µM (inactive).
Turning to `Cc1ccn2c(=O)cc(CN3CCOCC3)nc2c1`, the GI50 in the assay with SNB-19, in the assay on CAKI-1, in the assay on SNB-75, in the assay on Hs-578T, with SF-295 and in the assay on UACC-257 was > 100 µM (inactive) in each case. In addition, the GI50 in the assay with TK-10, with 786-0, with MDA-MB-435, with U-251, in the assay on COLO 205 and with MOLT-4 was > 100 µM (inactive) each time. In addition, the GI50 in the assay with NCI-H226, with MDA-N, in the assay on DU-145, with UO-31 and with SK-MEL-28 was > 100 µM (inactive) in each case.
Consider `COc1cc(C2c3cc4c(cc3[C@@H](Nc3ccccc3)C3CO[C@@H](OC)[C@H]23)OCO4)cc(OC)c1O` (some centres undefined), for which the GI50 is 6.07 µM (inactive) in the assay on SNB-19; 7.41 µM (inactive) with SNB-75; 3.21 µM (inactive) in the assay with Hs-578T; 3.46 µM (inactive) with SF-295; > 25 µM (inactive) with UACC-257; 9.46 µM (inactive) in the assay on TK-10. In addition, the GI50 in the assay on 786-0 is 5.14 µM (inactive); in the assay with MDA-MB-435, 9.79 µM (inactive); with U-251 it was 5.55 µM (inactive); in the assay with COLO 205, 12.3 µM (inactive); with SK-MEL-5, 8.55 µM (inactive); with T47D, 8.36 µM (inactive). The GI50 with MOLT-4 was 0.984 µM (active); in the assay on UO-31 it was 3.01 µM (inactive); in the assay on SK-MEL-28, 19.6 µM (inactive).
Take `Cc1nn2c(N)cc(=O)nc2nc1/C=C/c1ccc(N(C)C)cc1`: the GI50 is 29.9 µM (inactive) in the assay on SNB-19; 3.45 µM (inactive) in the assay on CAKI-1; 6.84 µM (inactive) in the assay with Hs-578T; > 79.3 µM (inactive) with SF-295; 17.3 µM (inactive) in the assay on UACC-257; > 100 µM (inactive) in the assay with TK-10. Besides, the GI50 was > 28.8 µM (inactive) in the assay on 786-0; 7.93 µM (inactive) in the assay with MDA-MB-435; > 22.1 µM (inactive) in the assay on U-251; 7.74 µM (inactive) with COLO 205; 20.6 µM (inactive) with SK-MEL-5; > 100 µM (inactive) in the assay with T47D. The GI50 in the assay on MOLT-4 was > 52 µM (inactive); in the assay on NCI-H226, > 66.5 µM (inactive); with MDA-N it was 5.82 µM (inactive); with DU-145 it was > 100 µM (inactive); in the assay on UO-31, 3.94 µM (inactive); in the assay with SK-MEL-28 it was > 84.5 µM (inactive).

Broadly, the GI50 is the concentration giving 50% growth inhibition.
